Results taken from patent US20030199692A1, “Propanoic acid derivatives that inhibit the binding of integrins to their receptors” (priority 1999, published 2003).

Molecular target: T1, α4β1 integrin (Homo sapiens, UniProt P05556+P13612)
T1 construct: endogenous in cells; host or cells: Ramos cells
Test: Inhibition of adhesion of calcein AM-labeled Ramos cells to CS1 (fibronectin) peptide-conjugated ovalbumin
Format: cell-based
Conditions: for IC50: Ramos cell adhesion to CS1-conjugated ovalbumin, 30 minutes at 37° C.; for inhibition at 100 µM: Ramos, compound at a concentration of 100 μM, read-out: % A (percent inhibition of cell adhesion)
Procedure: The ability of compounds of the present invention to inhibit binding is determined by a procedure in which a 26-amino acid peptide containing the CS1 sequence of fibronectin with an N-terminal Cys ([…]) was coupled to maleimide activated ovalbumin. Bovine serum albumin (BSA) and CS1 conjugated ovalbumin were coated onto 96-well polystyrene plates at 0.5 mg/ml in TBS (50 mM Tris, pH 7.5; 150 mM NaCl) at 4° C. for 16 hours. The plates were washed three times with TBS and blocked with TBS containing 3% BSA at room temperature for 4 hours. Blocked plates were washed three times in binding buffer (TBS; 1 mM MgCl2; 1 mM CaCl2; 1 mM MnCl2) prior to assay. Ramos cells fluorescently labeled with calcein AM were resuspended in binding buffer (10^7 cells/ml) and diluted 1:2 with same buffer with or without compound. The cells were added immediately to the wells (2.5×10^5 cells/well) and incubated for 30 minutes at 37° C. Following three washes with binding buffer, adherent cells were lysed and quantitated using a fluorometer. IC50 is defined as the dose required to give 50% inhibition. MS in Table 3 stands for Mass Spec. nd stands for not determined in the Tables. A stands for inhibition in Table 2, and the percent inhibition indicates the inhibition of cell adhesion when compound is included in the assay at a concentration of 100 μM. The lower the IC50 value and the greater the percentage of inhibition, the more efficient the compound is at prevention of cell adhesion.

T1 sequence (P13612 34-1032): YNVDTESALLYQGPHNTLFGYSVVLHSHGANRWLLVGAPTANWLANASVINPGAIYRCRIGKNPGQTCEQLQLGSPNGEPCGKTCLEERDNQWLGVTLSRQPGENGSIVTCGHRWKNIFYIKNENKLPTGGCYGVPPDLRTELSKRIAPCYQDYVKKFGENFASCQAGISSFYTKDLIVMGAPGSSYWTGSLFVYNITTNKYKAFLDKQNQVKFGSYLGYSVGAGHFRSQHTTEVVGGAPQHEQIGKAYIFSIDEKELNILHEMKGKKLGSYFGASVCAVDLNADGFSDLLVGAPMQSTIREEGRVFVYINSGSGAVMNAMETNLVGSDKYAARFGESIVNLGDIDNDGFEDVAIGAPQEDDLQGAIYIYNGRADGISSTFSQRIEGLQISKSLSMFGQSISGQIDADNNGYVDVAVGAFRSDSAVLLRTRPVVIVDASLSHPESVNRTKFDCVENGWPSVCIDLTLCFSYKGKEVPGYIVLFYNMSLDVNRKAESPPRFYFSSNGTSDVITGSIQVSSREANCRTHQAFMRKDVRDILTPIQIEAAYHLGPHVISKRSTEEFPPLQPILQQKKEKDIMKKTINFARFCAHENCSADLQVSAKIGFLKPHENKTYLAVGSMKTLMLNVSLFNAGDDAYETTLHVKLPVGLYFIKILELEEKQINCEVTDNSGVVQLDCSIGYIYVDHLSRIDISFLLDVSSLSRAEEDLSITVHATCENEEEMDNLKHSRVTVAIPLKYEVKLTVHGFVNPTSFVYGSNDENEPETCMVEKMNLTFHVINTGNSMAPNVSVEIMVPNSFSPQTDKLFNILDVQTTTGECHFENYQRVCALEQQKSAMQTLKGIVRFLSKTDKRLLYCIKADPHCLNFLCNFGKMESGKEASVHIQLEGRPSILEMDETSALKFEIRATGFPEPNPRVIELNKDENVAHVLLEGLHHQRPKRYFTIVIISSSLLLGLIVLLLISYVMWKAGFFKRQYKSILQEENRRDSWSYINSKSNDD
T1 sequence (P05556 21-798): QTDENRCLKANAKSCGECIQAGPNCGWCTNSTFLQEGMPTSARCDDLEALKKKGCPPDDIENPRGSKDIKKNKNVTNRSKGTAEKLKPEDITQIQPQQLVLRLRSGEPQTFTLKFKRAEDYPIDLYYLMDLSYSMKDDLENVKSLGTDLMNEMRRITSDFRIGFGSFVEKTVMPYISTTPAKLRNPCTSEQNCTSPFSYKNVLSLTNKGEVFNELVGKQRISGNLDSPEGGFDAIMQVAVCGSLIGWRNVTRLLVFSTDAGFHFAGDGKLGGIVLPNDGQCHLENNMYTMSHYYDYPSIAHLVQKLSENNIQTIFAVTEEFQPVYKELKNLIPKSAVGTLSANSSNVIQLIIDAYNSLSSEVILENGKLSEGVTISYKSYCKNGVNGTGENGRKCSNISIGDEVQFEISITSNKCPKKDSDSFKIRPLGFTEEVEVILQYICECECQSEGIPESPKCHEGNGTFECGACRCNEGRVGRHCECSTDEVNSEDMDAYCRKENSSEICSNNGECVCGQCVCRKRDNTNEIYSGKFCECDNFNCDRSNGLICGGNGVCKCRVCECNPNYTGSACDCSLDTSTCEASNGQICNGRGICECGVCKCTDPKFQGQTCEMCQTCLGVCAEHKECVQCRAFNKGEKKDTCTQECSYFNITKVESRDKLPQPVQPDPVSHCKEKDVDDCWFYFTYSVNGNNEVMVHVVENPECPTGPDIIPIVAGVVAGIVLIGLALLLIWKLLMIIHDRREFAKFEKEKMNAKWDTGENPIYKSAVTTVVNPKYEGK

SMILES	IC50 (Table 4) [nM]	other results
CCCCC(C(=O)N[C@@H](CC(=O)O)c1ccccc1)n1cc(C)cc(Cc2ccc3ccccc3c2)c1=O (stereo partly drawn) [(3S)-3-({2-[5-methyl-3-(2-naphthalenylmethyl)-2-oxo-1(2H)-pyridinyl]hexanoyl}amino)-3-phenylpropanoic acid]	30	
CCCCC(C(=O)N[C@@H](CC(=O)O)c1ccc2c(c1)CCO2)n1cc(C)cc(Cc2ccccc2)c1=O (mixture of isomers) [Compound 12, (3S)-3-((2R,S)-2-(3-benzyl-5-methyl-2-oxo-1(2H)-pyridinyl)hexanoylamino)-3-(2,3-dihydro-1-benzofuran-5-yl)propanoic acid]		IC50 (Table 1): 40 nM
CCCCC(C(=O)N[C@@H](CC(=O)O)c1ccc2c(c1)OCO2)n1c(=O)c(Cc2ccccc2)cc2ccccc21 (stereo partly drawn) [(3S)-3-(1,3-benzodioxol-5-yl)-3-({2-[2-oxo-3-(phenylmethyl)-1(2H)-quinolinyl]hexanoyl}amino)propanoic acid]		IC50 (Table 3): 2000 nM
CCCC[C@@H](C(=O)N[C@@H](CC(=O)O)c1ccc2c(c1)OCO2)N1CC(=O)N(Cc2cccs2)c2ccccc2C1=O [(3S)-3-(1,3-benzodioxol-5-yl)-3-({(2S)-2-[2,5-dioxo-1-(2-thiophenylmethyl)-1,2,3,5-tetrahydro-4H-1,4-benzodiazepin-4-yl]hexanoyl}amino)propanoic acid]		IC50 (Table 3): 1500 nM
CCCC[C@@H](C(=O)N[C@@H](CC(=O)O)c1ccc2c(c1)OCO2)N1CCCN(Cc2cccs2)C1=O [(3S)-3-(1,3-benzodioxol-5-yl)-3-(((2S)-2-(2-oxo-3-(2-thienylmethyl)tetrahydro-1(2H)-pyrimidinyl)hexanoyl)amino)propanoic acid]		inhibition at 100 µM (Table 2): 100%; IC50 (Table 2): 5 nM
CCCCC(C(=O)N[C@@H](CC(=O)O)c1ccc2c(c1)OCO2)n1cc(Cc2ccccc2)ccc1=O (stereo partly drawn) [(3S)-3-(1,3-Benzodioxol-5-yl)-3-({2-[2-oxo-5-(phenylmethyl)-1(2H)-pyridinyl]hexanoyl}amino)propanoic acid]		IC50 (Table 3): 40 nM
CCCCC(C(=O)N[C@@H](CC(=O)O)c1ccc2c(c1)OCO2)n1ccn(Cc2ccccc2)c1=O (stereo partly drawn) [(3S)-3-(1,3-benzodioxol-5-yl)-3-({2-[2-oxo-3-(phenylmethyl)-2,3-dihydro-1H-imidazol-1-yl]hexanoyl}amino)propanoic acid]		IC50 (Table 3): 60 nM
CCCCC(C(=O)N[C@@H](CC(=O)O)c1cccc(OC(C)C)c1)n1cc(C)cc(Cc2ccc3ccccc3c2)c1=O (stereo partly drawn) [(3S)-3-{3-[(1-methylethyl)oxy]phenyl}-3-({2-[5-methyl-3-(2-naphthalenylmethyl)-2-oxo-1(2H)-pyridinyl]hexanoyl}amino)propanoic acid]	20	
CCCC[C@@H](C(=O)N[C@@H](CC(=O)O)c1cc(OC)cc(OC)c1)n1cc(C)cc(Cc2ccccc2)c1=O [(3S)-3-{[(2S)-2-(3-benzyl-5-methyl-2-oxopyridin-1(2H)-yl)hexanoyl]amino}-3-(3,5-dimethoxyphenyl)propanoic acid]	10	
CCCC[C@@H](C(=O)N[C@@H](CC(=O)O)c1ccc2c(c1)OCO2)N1CCN(Cc2cccs2)C1=O [(3S)-3-(1,3-benzodioxol-5-yl)-3-({(2S)-2-[2-oxo-3-(2-thienylmethyl)-1-imidazolidinyl]hexanoyl}amino)propanoic acid]		inhibition at 100 µM (Table 2): 100%; IC50 (Table 2): 150 nM
CCCCC(C(=O)N[C@@H](CC(=O)O)c1ccc(Cl)c(OC(C)C)c1)n1cc(C)cc(Cc2ccccc2)c1=O (stereo partly drawn) [(3S)-3-{[2-(3-benzyl-5-methyl-2-oxopyridin-1(2H)-yl)hexanoyl]amino}-3-(4-chloro-3-isopropoxyphenyl)propanoic acid]	25	
CCCCC(C(=O)N[C@@H](CC(=O)O)c1cccc(CC(C)C)c1)n1cc(C)cc(Cc2ccccc2)c1=O (stereo partly drawn) [(3S)-3-({2-[5-methyl-2-oxo-3-(phenylmethyl)-1(2H)-pyridinyl]hexanoyl}amino)-3-[3-(2-methylpropyl)phenyl]propanoic acid]	10	
CCCCC(C(=O)N[C@@H](CC(=O)O)c1ccc(F)cc1)n1cc(C)cc(Cc2ccccc2)c1=O (mixture of isomers) [Compound 14, (3S)-3-((2R,S)-2-(3-benzyl-5-methyl-2-oxo-1(2H)-pyridinyl)hexanoylamino)-3-(4-fluorophenyl)propanoic acid]		IC50 (Table 1): 150 nM
CCCCC(C(=O)N[C@@H](CC(=O)O)c1ccc(C)cc1)n1cc(C)cc(Cc2ccccc2)c1=O (mixture of isomers) [Compound 13, (3S)-3-((2R,S)-2-(3-benzyl-5-methyl-2-oxo-1(2H)-pyridinyl)hexanoylamino)-3-(4-methylphenyl)propanoic acid]		IC50 (Table 1): 70 nM
CCCCC(C(=O)N[C@@H](CC(=O)O)c1ccc(OC(F)(F)F)cc1)n1cc(C)cc(Cc2ccccc2)c1=O (stereo partly drawn) [(3S)-3-{[2-(3-benzyl-5-methyl-2-oxopyridin-1(2H)-yl)hexanoyl]amino}-3-[4-(trifluoromethoxy)phenyl]propanoic acid]	27	
CCCCC(C(=O)N[C@@H](CC(=O)O)c1ccc(C)cc1)n1cc(C)cc(Cc2ccc3ccccc3c2)c1=O (stereo partly drawn) [(3S)-3-({2-[5-methyl-3-(2-naphthalenylmethyl)-2-oxo-1(2H)-pyridinyl]hexanoyl}amino)-3-(4-methylphenyl)propanoic acid]	400	
CCCC[C@@H](C(=O)N[C@@H](CC(=O)O)c1ccc(OC)c(F)c1)n1cc(C)cc(Cc2ccccc2)c1=O [(3S)-3-{[(2S)-2-(3-benzyl-5-methyl-2-oxopyridin-1(2H)-yl)hexanoyl]amino}-3-(3-fluoro-4-methoxyphenyl)propanoic acid]	17	
CCCCC(C(=O)N[C@@H](CC(=O)O)c1ccc2c(c1)OCO2)n1nc(C)cc(Cc2ccccc2)c1=O (stereo partly drawn) [(3S)-3-(1,3-benzodioxol-5-yl)-3-({2-[3-methyl-6-oxo-5-(phenylmethyl)-1(6H)-pyridazinyl]hexanoyl}amino)propanoic acid]		IC50 (Table 3): 60 nM
CCCCC(C(=O)N[C@@H](CC(=O)O)c1ccccc1)n1cc(C)cc(Cc2ccccc2C)c1=O (stereo partly drawn) [(3S)-3-({2-[5-methyl-3-[(2-methylphenyl)methyl]-2-oxo-1(2H)-pyridinyl]hexanoyl}amino)-3-phenylpropanoic acid]	25	
O=C(O)C[C@H](NC(=O)C1(n2cccc(Cc3ccccc3)c2=O)CCCCC1)c1ccc2c(c1)OCO2 [(3S)-3-(1,3-Benzodioxol-5-yl)-3-[({1-[2-oxo-3-(phenylmethyl)-1(2H)-pyridinyl]cyclohexyl}carbonyl)amino]propanoic acid]		IC50 (Table 3): 50000 nM
CCCCC(C(=O)N[C@@H](CC(=O)O)c1ccc(C)c(OC(C)C)c1)n1cc(C)cc(Cc2ccccc2)c1=O (stereo partly drawn) [(3S)-3-{4-methyl-3-[(1-methylethyl)oxy]phenyl}-3-({2-[5-methyl-2-oxo-3-(phenylmethyl)-1(2H)-pyridinyl]hexanoyl}amino)propanoic acid]	15	

Continued, in another order:

IC50 (Table 4) [nM]	SMILES	other results
300	CCCCC(C(=O)N[C@@H](CC(=O)O)c1ccc(-c2ccc(OC)cc2)cc1)n1cc(C)cc(Cc2ccccc2)c1=O (stereo partly drawn) [(3S)-3-{[2-(3-benzyl-5-methyl-2-oxopyridin-1(2H)-yl)hexanoyl]amino}-3-(4′-methoxy-1,1′-biphenyl-4-yl)propanoic acid]	
17	CCCCC(C(=O)N[C@@H](CC(=O)O)c1cccc(OC(C)C)c1)n1cc(C)cc(Cc2ccc(F)cc2Cl)c1=O (stereo partly drawn) [(3S)-3-({2-[3-[(2-chloro-4-fluorophenyl)methyl]-5-methyl-2-oxo-1(2H)-pyridinyl]hexanoyl}amino)-3-{3-[(1-methylethyl)oxy]phenyl}propanoic acid]	
283	CCCCC(C(=O)N[C@@H](CC(=O)O)c1ccc2c(c1)CCC2)n1cc(C)cc(Cc2ccc3ccccc3c2)c1=O (stereo partly drawn) [(3S)-3-(2,3-dihydro-1H-inden-5-yl)-3-({2-[5-methyl-3-(2-naphthalenylmethyl)-2-oxo-1(2H)-pyridinyl]hexanoyl}amino)propanoic acid]	
250	CCCCC(C(=O)N[C@@H](CC(=O)O)c1cccc(C(F)(F)F)c1)n1cc(C)cc(Cc2ccccc2)c1=O (stereo partly drawn) [(3S)-3-{[2-(3-benzyl-5-methyl-2-oxopyridin-1(2H)-yl)hexanoyl]amino}-3-[3-(trifluoromethyl)phenyl]propanoic acid]	
10	CCCCC(C(=O)N[C@@H](CC(=O)O)c1ccccc1)n1cc(C)cc(Cc2ccccc2)c1=O (stereo partly drawn) [(3S)-3-{[2-(3-benzyl-5-methyl-2-oxopyridin-1(2H)-yl)hexanoyl]amino}-3-phenylpropanoic acid]	
9	CCCCC(C(=O)N[C@@H](CC(=O)O)c1ccc(OC)c(C)c1)n1cc(C)cc(Cc2ccccc2)c1=O (stereo partly drawn) [(3S)-3-{[2-(3-benzyl-5-methyl-2-oxopyridin-1(2H)-yl)hexanoyl]amino}-3-(4-methoxy-3-methylphenyl)propanoic acid]	
67	CCCCC(C(=O)N[C@@H](CC(=O)O)c1cccc(OC(C)C)c1)n1cc(C)cc(Cc2cccc3ccccc23)c1=O (stereo partly drawn) [(3S)-3-{3-[(1-methylethyl)oxy]phenyl}-3-({2-[5-methyl-3-(1-naphthalenylmethyl)-2-oxo-1(2H)-pyridinyl]hexanoyl}amino)propanoic acid]	
